Data from patent US6620828B2, “Thiazole compounds and pharmaceutical compositions for inhibiting protein kinases and methods for their use” (Agouron Pharmaceuticals, Inc., priority 1999, dated 2003).

These compounds were tested on human umbilical vein endothelial cells (HUVEC) (assay: HUVEC proliferation assay). Conditions: Homo sapiens, HUVEC, Inhibition of HUVEC Proliferation; 50 nM; crude combinatorial urea library; read-out: Inhibition @ 50 nM.
Format: cell-based
In short: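 Readout was MTT dye reduction (A595) after 72 h of stimulation with VEGF at 6 ng/ml final. Compound, in 0.1% DMSO final, was added 1 h before VEGF to HUVEC starved 24 h in 1% FBS. % inhibition was scaled between VEGF-alone and unstimulated wells; IC50 was fitted from triplicate dose curves.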

Row | Structure (SMILES) | inhibition at 0.05 µM [%]
1 | COc1cccc(C(=O)Nc2cc(-c3noc(-c4sc(NC(=O)NCCNc5ccccc5)nc4N)n3)c(F)cc2F)c1 | 89
2 | COc1cccc(C(=O)Nc2cc(-c3noc(-c4sc(NC(=O)NCC(C)O)nc4N)n3)c(F)cc2F)c1 (centres unmarked) | 78
3 | COc1cccc(C(=O)Nc2cc(-c3noc(-c4sc(NC(=O)NCC5CCC=CO5)nc4N)n3)c(F)cc2F)c1 (centres unmarked) | 93
4 | COCCNC(=O)Nc1nc(N)c(-c2nc(-c3cc(NC(=O)c4cccc(OC)c4)c(F)cc3F)no2)s1 | 53
5 | COc1cccc(C(=O)Nc2cc(-c3noc(-c4sc(NC(=O)NCC(F)(F)F)nc4N)n3)c(F)cc2F)c1 | 89
6 | COc1cccc(C(=O)Nc2cc(-c3noc(-c4sc(NC(=O)NCCCn5ccnc5)nc4N)n3)c(F)cc2F)c1 | 87
7 | COc1cccc(C(=O)Nc2cc(-c3noc(-c4sc(NC(=O)NCCc5ccc(S(N)(=O)=O)cc5)nc4N)n3)c(F)cc2F)c1 | 83
8 | CCCCN(CC)CCNC(=O)Nc1nc(N)c(-c2nc(-c3cc(NC(=O)c4cccc(OC)c4)c(F)cc3F)no2)s1 | 42
9 | COc1cccc(C(=O)Nc2cc(-c3noc(-c4sc(NC(=O)NCc5ccc(N(C)C)cc5)nc4N)n3)c(F)cc2F)c1 | 48
10 | COc1cccc(C(=O)Nc2cc(-c3noc(-c4sc(NC(=O)NCP(=O)(O)O)nc4N)n3)c(F)cc2F)c1 | 4
11 | COc1cccc(C(=O)Nc2cc(-c3noc(-c4sc(NC(=O)NC(CO)CO)nc4N)n3)c(F)cc2F)c1 | 31
12 | COc1cccc(C(=O)Nc2cc(-c3noc(-c4sc(NC(=O)NCc5ccc(N)cc5)nc4N)n3)c(F)cc2F)c1 | 82
13 | COc1cccc(C(=O)Nc2cc(-c3noc(-c4sc(NC(=O)N[C@@H](CO)C(N)=O)nc4N)n3)c(F)cc2F)c1 | 59
14 | COc1cccc(C(=O)Nc2cc(-c3noc(-c4sc(NC(=O)NCCNC(C)=O)nc4N)n3)c(F)cc2F)c1 | 75
15 | COc1cccc(C(=O)Nc2cc(-c3noc(-c4sc(NC(=O)N[C@H](CO)Cc5c[nH]cn5)nc4N)n3)c(F)cc2F)c1 | 77
16 | CCC(CO)NC(=O)Nc1nc(N)c(-c2nc(-c3cc(NC(=O)c4cccc(OC)c4)c(F)cc3F)no2)s1 (centres unmarked) | 81
17 | COc1cccc(C(=O)Nc2cc(-c3noc(-c4sc(NC(=O)NCCCC(=O)O)nc4N)n3)c(F)cc2F)c1 | 96
18 | COc1cccc(C(=O)Nc2cc(-c3noc(-c4sc(NC(=O)NCCN5CCNCC5)nc4N)n3)c(F)cc2F)c1 | 76
19 | COc1cccc(C(=O)Nc2cc(-c3noc(-c4sc(NC(=O)NCCc5ccccn5)nc4N)n3)c(F)cc2F)c1 | 78
20 | COc1cccc(C(=O)Nc2cc(-c3noc(-c4sc(NC(=O)NCCN5CCCC5)nc4N)n3)c(F)cc2F)c1 | 79
21 | COCC(C)NC(=O)Nc1nc(N)c(-c2nc(-c3cc(NC(=O)c4cccc(OC)c4)c(F)cc3F)no2)s1 (centres unmarked) | 80
22 | COc1cccc(C(=O)Nc2cc(-c3noc(-c4sc(NC(=O)NCC(C)(O)CO)nc4N)n3)c(F)cc2F)c1 (centres unmarked) | 45
23 | COc1cccc(C(=O)Nc2cc(-c3noc(-c4sc(NC(=O)NC(C)CO)nc4N)n3)c(F)cc2F)c1 (centres unmarked) | 77
24 | COc1cccc(C(=O)Nc2cc(-c3noc(-c4sc(NC(=O)NCCN(C)C)nc4N)n3)c(F)cc2F)c1 | 69
25 | COc1cccc(C(=O)Nc2cc(-c3noc(-c4sc(NC(=O)NCC(C)(C)N)nc4N)n3)c(F)cc2F)c1 | 14
26 | CCCCN(CCCC)CCCNC(=O)Nc1nc(N)c(-c2nc(-c3cc(NC(=O)c4cccc(OC)c4)c(F)cc3F)no2)s1 | 80

Same assay, conditions: Homo sapiens, HUVEC, Table I screening results; 150 nM; crude combinatorial amide library

Row | Structure (SMILES) | inhibition at 0.15 µM [%]
27 | COc1cc(Nc2nc(N)c(-c3nc(-c4cccc(NC(=O)c5ccccc5CCc5ccccc5)c4)cs3)s2)cc(OC)c1OC | -14
28 | COc1cc(Nc2nc(N)c(-c3nc(-c4cccc(NC(=O)c5cccc(C(=O)c6ccccc6)c5)c4)cs3)s2)cc(OC)c1OC | -18
29 | COc1cc(Nc2nc(N)c(-c3nc(-c4cccc(NC(=O)C5CCCCC5)c4)cs3)s2)cc(OC)c1OC | -24
30 | COc1cc(Nc2nc(N)c(-c3nc(-c4cccc(NC(=O)Cc5ccc(Cl)c(Cl)c5)c4)cs3)s2)cc(OC)c1OC | -5
31 | COc1cc(Nc2nc(N)c(-c3nc(-c4cccc(NC(=O)Cc5ccc(Cl)cc5Cl)c4)cs3)s2)cc(OC)c1OC | -20
32 | CCc1ccc(-c2ccc(C(=O)Nc3cccc(-c4csc(-c5sc(Nc6cc(OC)c(OC)c(OC)c6)nc5N)n4)c3)cc2)cc1 | -7
33 | COc1cc(Nc2nc(N)c(-c3nc(-c4cccc(NC(=O)c5ccc6[nH]nnc6c5)c4)cs3)s2)cc(OC)c1OC | -8
34 | COc1cc(Nc2nc(N)c(-c3nc(-c4cccc(NC(=O)c5ccncc5)c4)cs3)s2)cc(OC)c1OC | 1
35 | COc1cc(Nc2nc(N)c(-c3nc(-c4cccc(NC(=O)Cc5ccc(Cl)cc5)c4)cs3)s2)cc(OC)c1OC | -7
36 | COc1cc(Nc2nc(N)c(-c3nc(-c4cccc(NC(=O)c5ccc6[nH]cnc6c5)c4)cs3)s2)cc(OC)c1OC | -30
37 | COc1cc(Nc2nc(N)c(-c3nc(-c4cccc(NC(=O)Cc5cccc(Cl)c5)c4)cs3)s2)cc(OC)c1OC | 30
38 | COc1cc(Nc2nc(N)c(-c3nc(-c4cccc(NC(=O)c5cc6cccc(OC)c6o5)c4)cs3)s2)cc(OC)c1OC | 21
39 | COc1cc(Nc2nc(N)c(-c3nc(-c4cccc(NC(=O)c5cn(Cc6ccccc6)c6ccccc56)c4)cs3)s2)cc(OC)c1OC | -11
40 | CC/C=C/CC(=O)Nc1cccc(-c2csc(-c3sc(Nc4cc(OC)c(OC)c(OC)c4)nc3N)n2)c1 | 19
41 | COc1cc(Nc2nc(N)c(-c3nc(-c4cccc(NC(=O)c5ccc6cc[nH]c6c5)c4)cs3)s2)cc(OC)c1OC | 25
42 | COc1cc(Nc2nc(N)c(-c3nc(-c4cccc(NC(=O)c5ccc6ncccc6c5)c4)cs3)s2)cc(OC)c1OC | 26
43 | COc1cc(Nc2nc(N)c(-c3nc(-c4cccc(NC(=O)CN5C(=O)CSC5=O)c4)cs3)s2)cc(OC)c1OC | 17
44 | COc1cc(Nc2nc(N)c(-c3nc(-c4cccc(NC(=O)C5C=CCC=C5C)c4)cs3)s2)cc(OC)c1OC (centres unmarked) | 14
45 | COc1ccc2c(c1)C(CC(=O)Nc1cccc(-c3csc(-c4sc(Nc5cc(OC)c(OC)c(OC)c5)nc4N)n3)c1)CC2=O (centres unmarked) | 0
46 | COc1ccc2[nH]c(C(=O)Nc3cccc(-c4csc(-c5sc(Nc6cc(OC)c(OC)c(OC)c6)nc5N)n4)c3)cc2c1 | 1
47 | COc1cc(Nc2nc(N)c(-c3nc(-c4cccc(NC(=O)c5ccc6ccccc6n5)c4)cs3)s2)cc(OC)c1OC | -11
48 | COc1cc(Nc2nc(N)c(-c3nc(-c4cccc(NC(=O)c5ccc6c(c5)OCO6)c4)cs3)s2)cc(OC)c1OC | 42
49 | C#CCCCC(=O)Nc1cccc(-c2csc(-c3sc(Nc4cc(OC)c(OC)c(OC)c4)nc3N)n2)c1 | -14

Row | Structure (SMILES) | inhibition at 0.15 µM [%]
50 | COc1ccc2oc(C(=O)Nc3cccc(-c4csc(-c5sc(Nc6cc(OC)c(OC)c(OC)c6)nc5N)n4)c3)cc2c1 | 7
51 | COc1cc(Nc2nc(N)c(-c3nc(-c4cccc(NC(=O)C(C)c5ccccc5)c4)cs3)s2)cc(OC)c1OC (centres unmarked) | 3
52 | COc1cc(Nc2nc(N)c(-c3nc(-c4cccc(NC(=O)C5=C(C)c6ccccc6C5)c4)cs3)s2)cc(OC)c1OC | 29
53 | COc1cc(Nc2nc(N)c(-c3nc(-c4cccc(NC(=O)/C=C/c5cccnc5)c4)cs3)s2)cc(OC)c1OC | -13
54 | COc1cc(Nc2nc(N)c(-c3nc(-c4cccc(NC(=O)C5CCCCCC5)c4)cs3)s2)cc(OC)c1OC | 13
55 | COc1cc(Nc2nc(N)c(-c3nc(-c4cccc(NC(=O)c5ccc(N(C)C)cc5)c4)cs3)s2)cc(OC)c1OC | 0
56 | CCC(C)CC(=O)Nc1cccc(-c2csc(-c3sc(Nc4cc(OC)c(OC)c(OC)c4)nc3N)n2)c1 (centres unmarked) | -3
57 | COc1cc(Nc2nc(N)c(-c3nc(-c4cccc(NC(=O)C(C)(C)C)c4)cs3)s2)cc(OC)c1OC | 7
58 | COc1cc(Nc2nc(N)c(-c3nc(-c4cccc(NC(=O)c5ccc(CCCl)cc5)c4)cs3)s2)cc(OC)c1OC | 59
59 | COc1cc(Nc2nc(N)c(-c3nc(-c4cccc(NC(=O)CCc5nc6ccccc6[nH]5)c4)cs3)s2)cc(OC)c1OC | 27
60 | COc1cc(Nc2nc(N)c(-c3nc(-c4cccc(NC(=O)c5csc(-c6cccnc6)n5)c4)cs3)s2)cc(OC)c1OC | 38
61 | COc1cc(Nc2nc(N)c(-c3nc(-c4cccc(NC(=O)c5ccc(C(=O)C(F)(F)F)cc5)c4)cs3)s2)cc(OC)c1OC | 26
62 | COc1cc(Nc2nc(N)c(-c3nc(-c4cccc(NC(=O)Cc5ccc6c(c5)OCO6)c4)cs3)s2)cc(OC)c1OC | 46
63 | COC(=O)c1ccc(C(=O)Nc2cccc(-c3csc(-c4sc(Nc5cc(OC)c(OC)c(OC)c5)nc4N)n3)c2)cc1 | 23
64 | COc1cc(Nc2nc(N)c(-c3nc(-c4cccc(NC(=O)CCC(C)C)c4)cs3)s2)cc(OC)c1OC | 39
65 | COc1cc(Nc2nc(N)c(-c3nc(-c4cccc(NC(=O)c5cccc(C#N)c5)c4)cs3)s2)cc(OC)c1OC | 56
66 | COc1cc(Nc2nc(N)c(-c3nc(-c4cccc(NC(=O)c5ccc(C#N)cc5)c4)cs3)s2)cc(OC)c1OC | 34
67 | COc1cc(Nc2nc(N)c(-c3nc(-c4cccc(NC(=O)Cc5ccccc5Cl)c4)cs3)s2)cc(OC)c1OC | 34
68 | COc1cc(Nc2nc(N)c(-c3nc(-c4cccc(NC(=O)c5ccc(SC)cc5)c4)cs3)s2)cc(OC)c1OC | 31
69 | COc1cc(Nc2nc(N)c(-c3nc(-c4cccc(NC(=O)c5cnc(Cl)c(Cl)c5)c4)cs3)s2)cc(OC)c1OC | 20
70 | COc1ccc(CCC(=O)Nc2cccc(-c3csc(-c4sc(Nc5cc(OC)c(OC)c(OC)c5)nc4N)n3)c2)cc1OC | 23
71 | COc1ccccc1CC(=O)Nc1cccc(-c2csc(-c3sc(Nc4cc(OC)c(OC)c(OC)c4)nc3N)n2)c1 | 58
